Assay results from patent US6638973B2, “Taxane formulations” (FSU Research Foundation, Inc., priority 2000, dated 2003).

The compounds below were run on HCT116 cells (assay: In vitro cytotoxicity measured by the cell colony formation assay). Details: HCT116 cells, 72 h incubation with drug, colonies counted after 7 days; ID50 = drug concentration producing 50% inhibition of colony formation; read-out: IN VITRO ID 50 (nm) HCT116.
Format: cell-based
Outline: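 Colony-forming survival was scored 7 days after a 72 h, 37 °C compound exposure followed by washout into fresh medium.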

Row | Structure (SMILES) | IC50
1 | COC(=O)O[C@H]1C[C@H]2OC[C@@]2(OC(C)=O)C2[C@H](OC(=O)c3ccccc3)[C@]3(O)C[C@H](OC(=O)[C@H](O)[C@@H](NC(=O)OC(C)C)c4cccs4)C(C)=C([C@@H](O)C(=O)[C@@]21C)C3(C)C (some centres unmarked) [Compound 4144] | < 1 nM
2 | CCOC(=O)O[C@H]1C[C@H]2OC[C@@]2(OC(C)=O)C2[C@H](OC(=O)c3ccccc3)[C@]3(O)C[C@H](OC(=O)[C@H](O)[C@@H](NC(=O)OC(C)C)c4cccs4)C(C)=C([C@@H](O)C(=O)[C@@]21C)C3(C)C (some centres unmarked) [Compound 4151] | < 1 nM
3 | CCOC(=O)O[C@H]1C[C@H]2OC[C@@]2(OC(C)=O)C2[C@H](OC(=O)c3ccccc3)[C@]3(O)C[C@H](OC(=O)[C@H](O)[C@@H](NC(=O)C=C(C)C)c4cccs4)C(C)=C([C@@H](O)C(=O)[C@@]21C)C3(C)C (some centres unmarked) [Compound 4164] | < 1 nM
4 | CCOC(=O)O[C@H]1C[C@H]2OC[C@@]2(OC(C)=O)C2[C@H](OC(=O)c3ccccc3)[C@]3(O)C[C@H](OC(=O)[C@H](O)[C@@H](NC(=O)c4ccccc4)c4cccs4)C(C)=C([C@@H](O)C(=O)[C@@]21C)C3(C)C (some centres unmarked) [Compound 4188] | < 10 nM
5 | COC(=O)O[C@H]1C[C@H]2OC[C@@]2(OC(C)=O)C2[C@H](OC(=O)c3ccccc3)[C@]3(O)C[C@H](OC(=O)[C@H](O)[C@@H](NC(=O)c4ccco4)c4cccs4)C(C)=C([C@@H](O)C(=O)[C@@]21C)C3(C)C (some centres unmarked) [Compound 4222] | < 1 nM
6 | CCOC(=O)O[C@H]1C[C@H]2OC[C@@]2(OC(C)=O)C2[C@H](OC(=O)c3ccccc3)[C@]3(O)C[C@H](OC(=O)[C@H](O)[C@@H](NC(=O)OC(C)(C)C)c4cccs4)C(C)=C([C@@H](O)C(=O)[C@@]21C)C3(C)C (some centres unmarked) [Compound 4234] | < 1 nM
7 | COC(=O)O[C@H]1C[C@H]2OC[C@@]2(OC(C)=O)C2[C@H](OC(=O)c3ccccc3)[C@]3(O)C[C@H](OC(=O)[C@H](O)[C@@H](NC(=O)C=C(C)C)c4cccs4)C(C)=C([C@@H](O)C(=O)[C@@]21C)C3(C)C (some centres unmarked) [Compound 4244] | < 1 nM
8 | CCOC(=O)O[C@H]1C[C@H]2OC[C@@]2(OC(C)=O)C2[C@H](OC(=O)c3ccccc3)[C@]3(O)C[C@H](OC(=O)[C@H](O)[C@@H](NC(=O)c4ccco4)c4cccs4)C(C)=C([C@@H](O)C(=O)[C@@]21C)C3(C)C (some centres unmarked) [Compound 4304] | < 10 nM
9 | COC(=O)O[C@H]1C[C@H]2OC[C@@]2(OC(C)=O)C2[C@H](OC(=O)c3ccccc3)[C@]3(O)C[C@H](OC(=O)[C@H](O)[C@@H](NC(=O)OCC(C)C)c4cccs4)C(C)=C([C@@H](O)C(=O)[C@@]21C)C3(C)C (some centres unmarked) [Compound 4355] | < 1 nM
10 | CCOC(=O)O[C@H]1C[C@H]2OC[C@@]2(OC(C)=O)C2[C@H](OC(=O)c3ccccc3)[C@]3(O)C[C@H](OC(=O)[C@H](O)[C@@H](NC(=O)OCC(C)C)c4cccs4)C(C)=C([C@@H](O)C(=O)[C@@]21C)C3(C)C (some centres unmarked) [Compound 4363] | < 10 nM
11 | CCOC(=O)O[C@H]1C(=O)[C@@]2(C)C([C@H](OC(=O)c3ccccc3)[C@]3(O)C[C@H](OC(=O)[C@H](O)[C@@H](NC(=O)C=C(C)C)c4cccs4)C(C)=C1C3(C)C)[C@]1(OC(C)=O)CO[C@@H]1C[C@@H]2O (some centres unmarked) [Compound 4374] | < 1 nM

Same assay, conditions: HCT116 colony formation; 72 h drug incubation, colonies counted after 7 days; Example 5, C-7 ester/C-10 hydroxy taxanes; read-out: IN VITRO ID 50 (nm) HCT116

Row | Structure (SMILES) | IC50
12 | CCCC(=O)O[C@H]1C[C@H]2OC[C@@]2(OC(C)=O)C2[C@H](OC(=O)c3ccccc3)[C@]3(O)C[C@H](OC(=O)[C@H](O)[C@@H](NC(=O)OC(C)C)c4cccs4)C(C)=C([C@@H](O)C(=O)[C@@]21C)C3(C)C (some centres unmarked) [Compound 4135] | < 1 nM
13 | CCCC(=O)O[C@H]1C[C@H]2OC[C@@]2(OC(C)=O)C2[C@H](OC(=O)c3ccccc3)[C@]3(O)C[C@H](OC(=O)[C@H](O)[C@@H](NC(=O)c4ccccc4)c4cccs4)C(C)=C([C@@H](O)C(=O)[C@@]21C)C3(C)C (some centres unmarked) [Compound 4175] | < 10 nM
14 | CCCC(=O)O[C@H]1C[C@H]2OC[C@@]2(OC(C)=O)C2[C@H](OC(=O)c3ccccc3)[C@]3(O)C[C@H](OC(=O)[C@H](O)[C@@H](NC(=O)c4ccco4)c4cccs4)C(C)=C([C@@H](O)C(=O)[C@@]21C)C3(C)C (some centres unmarked) [Compound 4219] | 29 nM
15 | CCCC(=O)O[C@H]1C[C@H]2OC[C@@]2(OC(C)=O)C2[C@H](OC(=O)c3ccccc3)[C@]3(O)C[C@H](OC(=O)[C@H](O)[C@@H](NC(=O)OC(C)(C)C)c4cccs4)C(C)=C([C@@H](O)C(=O)[C@@]21C)C3(C)C (some centres unmarked) [Compound 4256] | < 1 nM
16 | CCCC(=O)O[C@H]1C[C@H]2OC[C@@]2(OC(C)=O)C2[C@H](OC(=O)c3ccccc3)[C@]3(O)C[C@H](OC(=O)[C@H](O)[C@@H](NC(=O)C=C(C)C)c4cccs4)C(C)=C([C@@H](O)C(=O)[C@@]21C)C3(C)C (some centres unmarked) [Compound 4283] | < 1 nM
17 | CCCC(=O)O[C@H]1C[C@H]2OC[C@@]2(OC(C)=O)C2[C@H](OC(=O)c3ccccc3)[C@]3(O)C[C@H](OC(=O)[C@H](O)[C@@H](NC(=O)OCC(C)C)c4cccs4)C(C)=C([C@@H](O)C(=O)[C@@]21C)C3(C)C (some centres unmarked) [Compound 4290] | < 10 nM
18 | CCCC(=O)O[C@H]1C[C@H]2OC[C@@]2(OC(C)=O)C2[C@H](OC(=O)c3ccccc3)[C@]3(O)C[C@H](OC(=O)[C@H](O)[C@@H](NC(=O)C=C(C)C)c4cccs4)C(C)=C([C@@H](O)C(=O)[C@@]21C)C3(C)C (some centres unmarked) [Compound 4312] | < 1 nM
19 | CCCC(=O)O[C@H]1C[C@H]2OC[C@@]2(OC(C)=O)C2[C@H](OC(=O)c3ccccc3)[C@]3(O)C[C@H](OC(=O)[C@H](O)[C@@H](NC(=O)c4cccs4)c4cccs4)C(C)=C([C@@H](O)C(=O)[C@@]21C)C3(C)C (some centres unmarked) [Compound 4388] | < 1 nM
20 | CCCC(=O)O[C@H]1C[C@H]2OC[C@@]2(OC(C)=O)C2[C@H](OC(=O)c3ccccc3)[C@]3(O)C[C@H](OC(=O)[C@H](O)[C@@H](NC(=O)OC(C)(C)C)c4ccoc4)C(C)=C([C@@H](O)C(=O)[C@@]21C)C3(C)C (some centres unmarked) [Compound 4394] | < 1 nM

Same assay, conditions: HCT116 colony formation; 72 h drug incubation, colonies counted after 7 days; Example 10, C-10 ester/C-7 hydroxy taxanes; read-out: IN VITRO ID 50 (nm) HCT116

Row | Structure (SMILES) | IC50
21 | CCC(=O)O[C@H]1C(=O)[C@@]2(C)C([C@H](OC(=O)c3ccccc3)[C@]3(O)C[C@H](OC(=O)[C@H](O)[C@@H](NC(=O)c4cccnc4)c4cccs4)C(C)=C1C3(C)C)[C@]1(OC(C)=O)CO[C@@H]1C[C@@H]2O (some centres unmarked) [Compound 4121] | < 10 nM
22 | CCCC(=O)O[C@H]1C(=O)[C@@]2(C)C([C@H](OC(=O)c3ccccc3)[C@]3(O)C[C@H](OC(=O)[C@H](O)[C@@H](NC(=O)c4cccnc4)c4cccs4)C(C)=C1C3(C)C)[C@]1(OC(C)=O)CO[C@@H]1C[C@@H]2O (some centres unmarked) [Compound 4190] | < 10 nM
23 | CCC(=O)O[C@H]1C(=O)[C@@]2(C)C([C@H](OC(=O)c3ccccc3)[C@]3(O)C[C@H](OC(=O)[C@H](O)[C@@H](NC(=O)c4ccncc4)c4cccs4)C(C)=C1C3(C)C)[C@]1(OC(C)=O)CO[C@@H]1C[C@@H]2O (some centres unmarked) [Compound 4207] | < 10 nM
24 | CC(=O)O[C@@]12CO[C@@H]1C[C@H](O)[C@@]1(C)C(=O)[C@H](OC(=O)C3CC3)C3=C(C)[C@@H](OC(=O)[C@H](O)[C@@H](NC(=O)C=C(C)C)c4cccs4)C[C@@](O)([C@@H](OC(=O)c4ccccc4)C12)C3(C)C (some centres unmarked) [Compound 4329] | < 1 nM
25 | CCC(=O)O[C@H]1C(=O)[C@@]2(C)C([C@H](OC(=O)c3ccccc3)[C@]3(O)C[C@H](OC(=O)[C@H](O)[C@@H](NC(=O)C=C(C)C)c4cccs4)C(C)=C1C3(C)C)[C@]1(OC(C)=O)CO[C@@H]1C[C@@H]2O (some centres unmarked) [Compound 4335] | < 1 nM
26 | CCCC(=O)O[C@H]1C(=O)[C@@]2(C)C([C@H](OC(=O)c3ccccc3)[C@]3(O)C[C@H](OC(=O)[C@H](O)[C@@H](NC(=O)C=C(C)C)c4cccs4)C(C)=C1C3(C)C)[C@]1(OC(C)=O)CO[C@@H]1C[C@@H]2O (some centres unmarked) [Compound 4344] | < 1 nM
